Laboratory results as given in PMC8757604 (Journal of Enzyme Inhibition and Medicinal Chemistry, 2022).
Entries after “also recorded” stand apart in the source; their conditions may differ.

Biological target: T1, α-Glucosidase from Saccharomyces cerevisiae (Saccharomyces cerevisiae, UniProt P53341)
Assay: biochemical
Type: biochemical
Conditions: mean ± SD; enzyme 0.1 U/mL, p-NPG 0.25 mM, pH 6.8, 37 °C; read-out: α-Glucosidase inhibition (IC50)

T1 sequence (P53341 whole entry): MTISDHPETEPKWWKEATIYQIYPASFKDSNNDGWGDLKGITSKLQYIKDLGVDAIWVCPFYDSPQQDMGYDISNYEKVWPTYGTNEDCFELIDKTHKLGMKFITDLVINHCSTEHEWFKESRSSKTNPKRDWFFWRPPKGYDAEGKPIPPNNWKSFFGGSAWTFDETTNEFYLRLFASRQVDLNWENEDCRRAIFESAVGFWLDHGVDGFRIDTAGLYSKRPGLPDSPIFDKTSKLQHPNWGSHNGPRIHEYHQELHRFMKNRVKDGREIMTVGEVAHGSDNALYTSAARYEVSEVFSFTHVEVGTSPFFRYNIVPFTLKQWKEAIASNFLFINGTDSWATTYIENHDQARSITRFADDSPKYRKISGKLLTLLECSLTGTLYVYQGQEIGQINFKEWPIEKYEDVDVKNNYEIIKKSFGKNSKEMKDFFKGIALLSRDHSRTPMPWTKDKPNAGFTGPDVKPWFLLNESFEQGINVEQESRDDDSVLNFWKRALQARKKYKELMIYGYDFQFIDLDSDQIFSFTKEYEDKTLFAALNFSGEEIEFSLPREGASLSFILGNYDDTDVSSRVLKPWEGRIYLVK

| SMILES | IC50 [nM] |
| --- | --- |
| CC1(C)CCC2(C(=O)O)CCC3(C)C(=CCC4C5(C)CCC(=NOC(=O)C=Cc6ccccc6)C(C)(C)C5CCC43C)C2C1 (centres unmarked) [Compound 3a] | 350 ± 60 |
| Cc1ccc(/C=C/C(=O)O/N=C2\CC[C@@]3(C)C(CC[C@]4(C)C3CC=C3C5CC(C)(C)CC[C@]5(C(=O)O)CC[C@]34C)C2(C)C)cc1 (some centres unmarked) [Compound 3b] | 680 ± 30 |
| COc1ccc(/C=C/C(=O)O/N=C2\CC[C@@]3(C)C(CC[C@]4(C)C3CC=C3C5CC(C)(C)CC[C@]5(C(=O)O)CC[C@]34C)C2(C)C)cc1 (some centres unmarked) [Compound 3c] | 890 ± 70 |
| CC1(C)CC[C@]2(C(=O)O)CC[C@]3(C)C(=CCC4[C@@]5(C)CC/C(=N\OC(=O)/C=C/c6ccc(F)cc6)C(C)(C)C5CC[C@]43C)C2C1 (some centres unmarked) [Compound 3d] | 1450 ± 120 |
| CC1(C)CC[C@]2(C(=O)O)CC[C@]3(C)C(=CCC4[C@@]5(C)CC/C(=N\OC(=O)/C=C/c6ccc(Cl)cc6)C(C)(C)C5CC[C@]43C)C2C1 (some centres unmarked) [Compound 3e] | 950 ± 60 |
| CC1(C)CCC2(C(=O)O)CCC3(C)C(=CCC4C5(C)CCC(=NOC(=O)C=Cc6ccc(Br)cc6)C(C)(C)C5CCC43C)C2C1 (centres unmarked) [Compound 3f] | 1280 ± 30 |
| CC1(C)CC[C@]2(C(=O)O)CC[C@]3(C)C(=CCC4[C@@]5(C)CC/C(=N\OC(=O)/C=C/c6ccc(C(F)(F)F)cc6)C(C)(C)C5CC[C@]43C)C2C1 (some centres unmarked) [Compound 3g] | 3130 ± 130 |
| CC1(C)CC[C@]2(C(=O)O)CC[C@]3(C)C(=CCC4[C@@]5(C)CC/C(=N\OC(=O)/C=C/c6ccc([N+](=O)[O-])cc6)C(C)(C)C5CC[C@]43C)C2C1 (some centres unmarked) [Compound 3h] | 1360 ± 30 |
| CC1(C)CC[C@]2(C(=O)O)CC[C@]3(C)C(=CCC4[C@@]5(C)CC/C(=N\OC(=O)/C=C/c6ccc7c(c6)OCO7)C(C)(C)C5CC[C@]43C)C2C1 (some centres unmarked) [Compound 3i] | 710 ± 20 |
| CC1(C)CC[C@]2(C(=O)O)CC[C@]3(C)C(=CCC4[C@@]5(C)CC/C(=N\OC(=O)/C=C/c6ccc(O)cc6)C(C)(C)C5CC[C@]43C)C2C1 (some centres unmarked) [Compound 3j] | 820 ± 90 |

Same assay, conditions: ratio of IC50 vs OA

| SMILES | α-glucosidase inhibition, times stronger than OA [times] |
| --- | --- |
| CC1(C)CCC2(C(=O)O)CCC3(C)C(=CCC4C5(C)CCC(=NOC(=O)C=Cc6ccccc6)C(C)(C)C5CCC43C)C2C1 (centres unmarked) [Compound 3a] | ~11 |

Same assay, conditions: ratio of IC50 vs acarbose

| SMILES | α-glucosidase inhibition, times stronger than acarbose [times] |
| --- | --- |
| CC1(C)CCC2(C(=O)O)CCC3(C)C(=CCC4C5(C)CCC(=NOC(=O)C=Cc6ccccc6)C(C)(C)C5CCC43C)C2C1 (centres unmarked) [Compound 3a] | ~1900 |

Biological target: T1, α-Glucosidase from Saccharomyces cerevisiae
Assay: α-Glucosidase inhibition kinetics (V vs [E], Lineweaver–Burk plots)
Type: biochemical
Conditions: Lineweaver–Burk plots; 3a 0-0.5 μM
Description: To probe into the inhibition mechanism of OA derivatives (3a–3t) against α-glucosidase, compound 3a with the strongest inhibitory activity was selected as the representative compound for the enzyme inhibitory kinetic analysis. […] The inhibition kinetic behaviours were investigated using the Lineweaver–Burk plots.
The enzyme inhibition kinetics analysis was investigated using previously reported method with minor modifications[25]^,[26]. In brief, inhibitory effect was determined from the plots of absorbance change of OA derivatives at different concentrations with enzyme at different concentrations. The inhibition type was measured based on the Lineweaver–Burk plot of absorbance change of OA derivatives at different concentrations with p-NPG substrate at different concentrations.

| SMILES | Inhibition type towards α-glucosidase |
| --- | --- |
| CC1(C)CCC2(C(=O)O)CCC3(C)C(=CCC4C5(C)CCC(=NOC(=O)C=Cc6ccccc6)C(C)(C)C5CCC43C)C2C1 (centres unmarked) [Compound 3a] | mixed-type inhibitor; also recorded: mixed types |

Same assay, conditions: plots of V vs [E]; 3a 0-0.5 μM

| SMILES | Reversibility of α-glucosidase inhibition |
| --- | --- |
| CC1(C)CCC2(C(=O)O)CCC3(C)C(=CCC4C5(C)CCC(=NOC(=O)C=Cc6ccccc6)C(C)(C)C5CCC43C)C2C1 (centres unmarked) [Compound 3a] | reversible |

System: 3T3-L1 cells
Assay: Cells cytotoxicity assay (MTT), 3T3-L1
Type: cell-based
Conditions: 24 h treatment, under concentration of 100 µM
Description: (§1) 3T3–L1 or HepG2 cells were cultured in Dulbecco’s modified Eagle medium (DMEM) with 10% foetal bovine serum (FBS), 100 IU/mL penicillin and 100 IU/mL streptomycin at 37 °C under 5% CO2. 3T3-L1 cells (2 × 10^3) or HepG2 cells ([…]) were plated onto 96-well plate ([…]) and incubated for 24 h. After treated with compound (3a or 3f) for 24 h, the cells were added […] (0.5 mg/mL) and incubated for 4 h. Then […] was added to dissolve the blue insoluble MTT formazan. Finally, the absorbance was measured at 570 nm using a microplate reader. Each sample was performed in triplicate.

| SMILES | Cytotoxicity to 3T3-L1 cells |
| --- | --- |
| CC1(C)CCC2(C(=O)O)CCC3(C)C(=CCC4C5(C)CCC(=NOC(=O)C=Cc6ccccc6)C(C)(C)C5CCC43C)C2C1 (centres unmarked) [Compound 3a] | non-cytotoxic |
| CC1(C)CCC2(C(=O)O)CCC3(C)C(=CCC4C5(C)CCC(=NOC(=O)C=Cc6ccc(Br)cc6)C(C)(C)C5CCC43C)C2C1 (centres unmarked) [Compound 3f] | non-cytotoxic |

System: HepG2 cells
Assay: Cells cytotoxicity assay (MTT), HepG2
Type: cell-based
Conditions: 24 h treatment, under concentration of 100 µM
Description: as §1

| SMILES | Cytotoxicity to HepG2 cells |
| --- | --- |
| CC1(C)CCC2(C(=O)O)CCC3(C)C(=CCC4C5(C)CCC(=NOC(=O)C=Cc6ccccc6)C(C)(C)C5CCC43C)C2C1 (centres unmarked) [Compound 3a] | non-cytotoxic |
| CC1(C)CCC2(C(=O)O)CCC3(C)C(=CCC4C5(C)CCC(=NOC(=O)C=Cc6ccc(Br)cc6)C(C)(C)C5CCC43C)C2C1 (centres unmarked) [Compound 3f] | non-cytotoxic |

Biological target: T2, α-amylase from hog pancreas (Sus scrofa, UniProt P00690)
T2 sequence (P00690 16-511): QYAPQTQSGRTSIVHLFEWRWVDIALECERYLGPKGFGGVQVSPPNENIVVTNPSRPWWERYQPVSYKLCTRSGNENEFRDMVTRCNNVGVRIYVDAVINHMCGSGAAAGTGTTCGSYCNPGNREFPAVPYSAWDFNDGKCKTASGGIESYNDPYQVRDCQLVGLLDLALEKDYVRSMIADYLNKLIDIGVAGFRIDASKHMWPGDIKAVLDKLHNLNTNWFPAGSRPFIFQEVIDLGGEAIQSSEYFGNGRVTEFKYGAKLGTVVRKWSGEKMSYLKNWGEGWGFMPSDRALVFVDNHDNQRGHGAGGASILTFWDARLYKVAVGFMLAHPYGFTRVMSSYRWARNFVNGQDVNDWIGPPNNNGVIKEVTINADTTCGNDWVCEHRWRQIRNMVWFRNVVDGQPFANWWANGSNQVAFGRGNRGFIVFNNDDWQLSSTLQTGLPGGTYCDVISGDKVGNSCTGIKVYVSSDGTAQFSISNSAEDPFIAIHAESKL
Assay: α-Amylase inhibition assay (starch/DNS, absorbance 540 nm)
Conditions: not given

| SMILES | IC50 [µM] |
| --- | --- |
| CC1(C)CCC2(C(=O)O)CCC3(C)C(=CCC4C5(C)CCC(=NOC(=O)C=Cc6ccccc6)C(C)(C)C5CCC43C)C2C1 (centres unmarked) [Compound 3a] | 7.86 ± 1.24 |
| Cc1ccc(/C=C/C(=O)O/N=C2\CC[C@@]3(C)C(CC[C@]4(C)C3CC=C3C5CC(C)(C)CC[C@]5(C(=O)O)CC[C@]34C)C2(C)C)cc1 (some centres unmarked) [Compound 3b] | 15.3 ± 1.41 |
| COc1ccc(/C=C/C(=O)O/N=C2\CC[C@@]3(C)C(CC[C@]4(C)C3CC=C3C5CC(C)(C)CC[C@]5(C(=O)O)CC[C@]34C)C2(C)C)cc1 (some centres unmarked) [Compound 3c] | 25.4 ± 1.17 |
| CC1(C)CC[C@]2(C(=O)O)CC[C@]3(C)C(=CCC4[C@@]5(C)CC/C(=N\OC(=O)/C=C/c6ccc(F)cc6)C(C)(C)C5CC[C@]43C)C2C1 (some centres unmarked) [Compound 3d] | 17.5 ± 1.52 |
| CC1(C)CC[C@]2(C(=O)O)CC[C@]3(C)C(=CCC4[C@@]5(C)CC/C(=N\OC(=O)/C=C/c6ccc(Cl)cc6)C(C)(C)C5CC[C@]43C)C2C1 (some centres unmarked) [Compound 3e] | 5.64 ± 1.29 |
| CC1(C)CCC2(C(=O)O)CCC3(C)C(=CCC4C5(C)CCC(=NOC(=O)C=Cc6ccc(Br)cc6)C(C)(C)C5CCC43C)C2C1 (centres unmarked) [Compound 3f] | 3.8 ± 0.65 |
| CC1(C)CC[C@]2(C(=O)O)CC[C@]3(C)C(=CCC4[C@@]5(C)CC/C(=N\OC(=O)/C=C/c6ccc(C(F)(F)F)cc6)C(C)(C)C5CC[C@]43C)C2C1 (some centres unmarked) [Compound 3g] | 12.6 ± 2.37 |
| CC1(C)CC[C@]2(C(=O)O)CC[C@]3(C)C(=CCC4[C@@]5(C)CC/C(=N\OC(=O)/C=C/c6ccc([N+](=O)[O-])cc6)C(C)(C)C5CC[C@]43C)C2C1 (some centres unmarked) [Compound 3h] | 18.3 ± 1.92 |
| CC1(C)CC[C@]2(C(=O)O)CC[C@]3(C)C(=CCC4[C@@]5(C)CC/C(=N\OC(=O)/C=C/c6ccc7c(c6)OCO7)C(C)(C)C5CC[C@]43C)C2C1 (some centres unmarked) [Compound 3i] | 17.9 ± 1.21 |
| CC1(C)CC[C@]2(C(=O)O)CC[C@]3(C)C(=CCC4[C@@]5(C)CC/C(=N\OC(=O)/C=C/c6ccc(O)cc6)C(C)(C)C5CC[C@]43C)C2C1 (some centres unmarked) [Compound 3j] | 70.8 ± 2.31 |

Same assay, conditions: ratio of IC50 vs OA

| SMILES | α-amylase inhibition, times better than OA [times] |
| --- | --- |
| CC1(C)CCC2(C(=O)O)CCC3(C)C(=CCC4C5(C)CCC(=NOC(=O)C=Cc6ccc(Br)cc6)C(C)(C)C5CCC43C)C2C1 (centres unmarked) [Compound 3f] | ~25 |

Same assay, conditions: ratio of IC50 vs acarbose

| SMILES | α-amylase inhibition, times better than acarbose [times] |
| --- | --- |
| CC1(C)CCC2(C(=O)O)CCC3(C)C(=CCC4C5(C)CCC(=NOC(=O)C=Cc6ccc(Br)cc6)C(C)(C)C5CCC43C)C2C1 (centres unmarked) [Compound 3f] | ~26 |

Biological target: T2, α-amylase from hog pancreas
Assay: α-Amylase inhibition kinetics (V vs [E], Lineweaver–Burk plots)
Type: biochemical
Design: α-amylase from hog pancreas (EC3.2.1.1); from tissue; host or cells: hog pancreas
Conditions: Lineweaver–Burk plots; 3f 0-15.0 μM
Text: Compound 3f with the strongest inhibitory activity against α-amylase was selected as the representative compound for the enzyme inhibitory kinetic analysis.
The enzyme inhibition kinetics analysis was investigated. The operation method was similar with the assay of α-glucosidase, except the concentrations of test compound, enzyme and substrate.

| SMILES | Inhibition type towards α-amylase |
| --- | --- |
| CC1(C)CCC2(C(=O)O)CCC3(C)C(=CCC4C5(C)CCC(=NOC(=O)C=Cc6ccc(Br)cc6)C(C)(C)C5CCC43C)C2C1 (centres unmarked) [Compound 3f] | mixed types; also recorded: mixed-type inhibitor |

Same assay, conditions: plots of V vs α-amylase concentration; 3f 0-15.0 μM

| SMILES | Reversibility of α-amylase inhibition |
| --- | --- |
| CC1(C)CCC2(C(=O)O)CCC3(C)C(=CCC4C5(C)CCC(=NOC(=O)C=Cc6ccc(Br)cc6)C(C)(C)C5CCC43C)C2C1 (centres unmarked) [Compound 3f] | reversible |
